Test results from paper PMC7898037, “Improving mitochondria and ER stability helps eliminate upper motor neuron degeneration that occurs due to mSOD1 toxicity and TDP‐43 pathology” (Clinical and Translational Medicine, 2021).

Experiments:
Format in all cases: in vivo
[1] = tested on: misfolded SOD1 in UMNs of hSOD1^G93A‐UeGFP mice; assay: Quantification of misfolded SOD1 (B8H10) in UMNs; details: for misfolded SOD1 level in UMNs (average integrated density): hSOD1^G93A‐UeGFP mice
Experimental: (§1) hSOD1^G93A‐UeGFP, prpTDP‐43^A315T‐UeGFP and WT‐UeGFP mice were weighed and the required NU‐9 dose per weight was calculated (20 or 100 mg/kg), which was administered once daily by oral gavage, starting at postnatal day (P)60 and continuing until P120. Animals from the untreated group received the vehicle (NMP and olive oil) only. For oral administration purposes, 20 ga × 38 mm plastic feeding tubes were used (Instech Laboratories, Inc). The gavage tip was inserted into the mouth directly over the tongue and into the pharynx. While observing the swallowing reflex, the tip was safely and smoothly slid into the esophagus. Once the administration was completed, the gavage tip was pulled straight out.
(§2) The antibodies used are as follows: anti‐GFP (1:1000, Invitrogen; or 1:1000, Abcam) and anti‐misfolded SOD1 (B8H10, 1:250, Médimabs). Briefly, sections were treated with blocking solution (PBS, 0.05% BSA, 2% FBS, 1% Triton X‐100, and 0.1% saponin) for 30 min at room temperature and incubated with primary antibody diluted in blocking solution overnight at 4°C. Appropriate secondary fluorescent antibodies (1:500, AlexaFluor‐conjugated, Invitrogen) were added to the blocking solution at room temperature for 2 h in the dark.
50‐µm thick sections of primary motor cortex were captured using the 20× objective on an inverted epifluorescent Eclipse TE2000‐E microscope using the same settings and exposure time for all of the samples. eGFP positive (eGFP^+) UMNs in focal plane with sharp boundaries and a visible nucleus were traced using ImageJ (NIH). ROI were transferred to the misfolded SOD1 channel, and the integrated density was measured to determine the levels of misfolded SOD1 in GFP^+ UMNs only. Fifty to 90 UMNs were analyzed per mouse, and the average integrated density was reported per experimental group. For visualization purposes of misfolded SOD1 fluorescence intensity, nd2 files were opened in ImageJ and spectrum look‐up table (LUT) was applied to the appropriate channel.

[2] = tested on: UMN apical dendrites of hSOD1^G93A‐UeGFP mice; assay: UMN apical dendrites with vacuoles, hSOD1^G93A‐UeGFP mice; details: for Mean, Fig. 4G (UMN apical dendrites with vacuoles): hSOD1G93A-UeGFP mice; for percentage of UMNs with vacuolated apical dendrites: hSOD1^G93A‐UeGFP mice
Experimental: as §1
Mice were deeply anesthetized using ketamine (90 mg/kg) with xylazine (10 mg/kg), and transcardially perfused with 4% PFA in PBS. The brains were removed intact and postfixed (4% PFA, overnight) and stored in PBS with sodium azide (0.01%) at 4°C. Sections were cut in a coronal (50 µm) plane using a vibratome (Leica) and processed for immunocytochemical analyses.
as §2

hSOD1^G93A‐UeGFP mice = assay: Hanging wire test (max 60 s), hSOD1^G93A‐UeGFP mice; parameters: Mean Diff. (wire hanging), vehicle vs. NU-9 / Mean (wire hanging): unit not given here; details: for Hanging wire test, group mean (Mean 1 / Mean 2): hSOD1G93A-UeGFP (GS) mice
Experimental: as §1
Behavior data were collected from hSOD1^G93A‐UeGFP and WT‐UeGFP mice (starting at P60 and every 7 days until P116) and from prpTDP‐43^A315T‐UeGFP mice (at P60, P90, and P120) with the following number of mice for each group: WT‐UeGFP vehicle (n = 10), hSOD1^G93A‐UeGFP vehicle (n = 6), WT‐UeGFP 20 mg/kg/day NU‐9 (n = 5), hSOD1^G93A‐UeGFP 20 mg/kg/day NU‐9 (n = 7), WT‐UeGFP 100 mg/kg/day NU‐9 (n = 11), hSOD1^G93A‐UeGFP 100 mg/kg/day NU‐9 (n = 9), prpTDP‐43^A315T‐UeGFP untreated (n ≥ 3), and prpTDP‐43^A315T‐UeGFP 100 mg/kg/day NU‐9 (n = 4) (Table S3).
Mice were placed on a wire mesh, which was then inverted and suspended above the home cage; the time when the animal fell was recorded. This test was performed three times for a maximum of 60 s each session, with a 1‐min rest period between each trial. The average performance for each session is presented as the average of the three trials.

[3] = 20 mg/kg/day oral gavage P60–P120
[4] = 100 mg/kg/day oral gavage P60–P120

Which results are given for `C[C@H](Oc1cc(C(F)(F)F)cc(C(F)(F)F)c1)C1CC(=O)CC(=O)C1` [NU‐9]?
Fig. 3E group mean (integrated density of misfolded SOD1 fluorescence in UMNs) ([1]; hSOD1G93A-UeGFP (NU-9 20 mg/kg/day)): 132928; Fig. 3E group mean (integrated density of misfolded SOD1 fluorescence in UMNs) ([1]; hSOD1G93A-UeGFP (NU-9 100 mg/kg/day)): 120052; misfolded SOD1 level in UMNs (average integrated density) [1, 3]: 1.33 × 10^5 ± 0.11 × 10^5 au; misfolded SOD1 level in UMNs (average integrated density) [1, 4]: 1.2 × 10^5 ± 0.07 × 10^5 au; Mean, Fig. 4G (UMN apical dendrites with vacuoles) ([2]; NU-9 20 mg/kg/day): 43.86; Mean, Fig. 4G (UMN apical dendrites with vacuoles) ([2]; NU-9 100 mg/kg/day): 23.28; Mean Diff., Fig. 4G, GS Vehicle vs. GS NU-9 (20) ([2]; hSOD1G93A-UeGFP vehicle minus NU-9 20 mg/kg/day, Tukey's multiple comparisons test): 32.38; Mean Diff., Fig. 4G, GS Vehicle vs. GS NU-9 (100) ([2]; hSOD1G93A-UeGFP vehicle minus NU-9 100 mg/kg/day, Tukey's multiple comparisons test): 52.96; percentage of UMNs with vacuolated apical dendrites [2, 3]: 44% ± 7%; percentage of UMNs with vacuolated apical dendrites [2, 4]: 23% ± 10%; Hanging wire test, group mean (Mean 1 / Mean 2) (hSOD1^G93A‐UeGFP mice; NU-9 20 mg/kg/day, P102, max 60 s): 43 s; Hanging wire test, group mean (Mean 1 / Mean 2) (hSOD1^G93A‐UeGFP mice; NU-9 20 mg/kg/day, P109, max 60 s): 37.48 s; Hanging wire test, group mean (Mean 1 / Mean 2) (hSOD1^G93A‐UeGFP mice; NU-9 20 mg/kg/day, P116, max 60 s): 27.33 s; Hanging wire test, group mean (Mean 1 / Mean 2) (hSOD1^G93A‐UeGFP mice; NU-9 100 mg/kg/day, P102, max 60 s): 53.3 s; Hanging wire test, group mean (Mean 1 / Mean 2) (hSOD1^G93A‐UeGFP mice; NU-9 100 mg/kg/day, P109, max 60 s): 58.89 s; Hanging wire test, group mean (Mean 1 / Mean 2) (hSOD1^G93A‐UeGFP mice; NU-9 100 mg/kg/day, P116, max 60 s): 51.15 s; Hanging wire test, mean difference vehicle minus NU-9 (hSOD1^G93A‐UeGFP mice; hSOD1G93A-UeGFP (GS) vehicle vs. NU-9 20 mg/kg/day, P102): -0.6667 s; Hanging wire test, mean difference vehicle minus NU-9 (hSOD1^G93A‐UeGFP mice; hSOD1G93A-UeGFP (GS) vehicle vs. NU-9 20 mg/kg/day, P109): 6.746 s; Hanging wire test, mean difference vehicle minus NU-9 (hSOD1^G93A‐UeGFP mice; hSOD1G93A-UeGFP (GS) vehicle vs. NU-9 20 mg/kg/day, P116): -4.722 s; Hanging wire test, mean difference vehicle minus NU-9 (hSOD1^G93A‐UeGFP mice; hSOD1G93A-UeGFP (GS) vehicle vs. NU-9 100 mg/kg/day, P102): -10.96 s; Hanging wire test, mean difference vehicle minus NU-9 (hSOD1^G93A‐UeGFP mice; hSOD1G93A-UeGFP (GS) vehicle vs. NU-9 100 mg/kg/day, P109): -14.67 s; Hanging wire test, mean difference vehicle minus NU-9 (hSOD1^G93A‐UeGFP mice; hSOD1G93A-UeGFP (GS) vehicle vs. NU-9 100 mg/kg/day, P116): -28.54 s; Mean Diff. (wire hanging), vehicle vs. NU-9 (hSOD1^G93A‐UeGFP mice; hSOD1G93A-UeGFP vehicle vs. NU-9 20 mg/kg/day, P60): -0.5238; Mean Diff. (wire hanging), vehicle vs. NU-9 (hSOD1^G93A‐UeGFP mice; hSOD1G93A-UeGFP vehicle vs. NU-9 20 mg/kg/day, P67): 4.175; Mean Diff. (wire hanging), vehicle vs. NU-9 (hSOD1^G93A‐UeGFP mice; hSOD1G93A-UeGFP vehicle vs. NU-9 20 mg/kg/day, P74): -3.46; Mean Diff. (wire hanging), vehicle vs. NU-9 (hSOD1^G93A‐UeGFP mice; hSOD1G93A-UeGFP vehicle vs. NU-9 20 mg/kg/day, P81): -1.095; Mean Diff. (wire hanging), vehicle vs. NU-9 (hSOD1^G93A‐UeGFP mice; hSOD1G93A-UeGFP vehicle vs. NU-9 20 mg/kg/day, P88): -2.452; Mean Diff. (wire hanging), vehicle vs. NU-9 (hSOD1^G93A‐UeGFP mice; hSOD1G93A-UeGFP vehicle vs. NU-9 20 mg/kg/day, P95): -5.254; Mean Diff. (wire hanging), vehicle vs. NU-9 (hSOD1^G93A‐UeGFP mice; hSOD1G93A-UeGFP vehicle vs. NU-9 20 mg/kg/day, P102): -0.6667; Mean Diff. (wire hanging), vehicle vs. NU-9 (hSOD1^G93A‐UeGFP mice; hSOD1G93A-UeGFP vehicle vs. NU-9 20 mg/kg/day, P109): 6.746; Mean Diff. (wire hanging), vehicle vs. NU-9 (hSOD1^G93A‐UeGFP mice; hSOD1G93A-UeGFP vehicle vs. NU-9 20 mg/kg/day, P116): -4.722; Mean Diff. (wire hanging), vehicle vs. NU-9 (hSOD1^G93A‐UeGFP mice; hSOD1G93A-UeGFP vehicle vs. NU-9 100 mg/kg/day, P60): -5.333; Mean Diff. (wire hanging), vehicle vs. NU-9 (hSOD1^G93A‐UeGFP mice; hSOD1G93A-UeGFP vehicle vs. NU-9 100 mg/kg/day, P67): 1.222; Mean Diff. (wire hanging), vehicle vs. NU-9 (hSOD1^G93A‐UeGFP mice; hSOD1G93A-UeGFP vehicle vs. NU-9 100 mg/kg/day, P74): -7.519; Mean Diff. (wire hanging), vehicle vs. NU-9 (hSOD1^G93A‐UeGFP mice; hSOD1G93A-UeGFP vehicle vs. NU-9 100 mg/kg/day, P81): -5.148; Mean Diff. (wire hanging), vehicle vs. NU-9 (hSOD1^G93A‐UeGFP mice; hSOD1G93A-UeGFP vehicle vs. NU-9 100 mg/kg/day, P88): -9.13; Mean Diff. (wire hanging), vehicle vs. NU-9 (hSOD1^G93A‐UeGFP mice; hSOD1G93A-UeGFP vehicle vs. NU-9 100 mg/kg/day, P95): -7.704
